Key:
SIRT3 = target: T1, SIRT3 (Homo sapiens, UniProt Q9NTG7); assay: SIRT3 deacetylase inhibition assay; type: biochemical
T1 sequence (Q9NTG7 1-399): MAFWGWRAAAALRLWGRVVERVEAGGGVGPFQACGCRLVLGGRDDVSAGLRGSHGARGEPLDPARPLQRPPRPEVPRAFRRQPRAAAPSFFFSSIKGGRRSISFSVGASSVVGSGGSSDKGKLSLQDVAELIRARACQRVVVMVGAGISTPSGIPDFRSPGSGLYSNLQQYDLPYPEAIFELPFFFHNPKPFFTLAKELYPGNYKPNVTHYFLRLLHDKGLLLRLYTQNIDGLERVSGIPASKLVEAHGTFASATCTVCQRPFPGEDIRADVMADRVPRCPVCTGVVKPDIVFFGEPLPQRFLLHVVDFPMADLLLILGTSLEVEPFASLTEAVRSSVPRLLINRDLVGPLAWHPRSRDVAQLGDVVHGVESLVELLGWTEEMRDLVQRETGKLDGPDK

MCF7 cells [1] = assay: MCF7 cell permeability/availability assay; type: in vitro ADME; conditions: for level of inhibitor detected in cells: 6 hours
MCF7 cells [2] = assay: Soft agar colony formation assay; type: cell-based; conditions: MCF7, 12 μM, 10 days
[3] = 50 mM DMSO stock diluted to 5 mg/ml in PBS
[4] = tested on: various cancer cell lines; conditions: breast, pancreatic, colon, lung and many more; cited from earlier work
breast cancers = conditions: xenograft model and genetic model of breast cancers in mice; cited from earlier work

SIRT3 inhibition at 83 μM (SIRT3): did not inhibit | level of inhibitor detected in cells (MCF7 cells [1]; MCF7, 25 μM): about 0.29 μg/million cells | level of inhibitor detected in cells (MCF7 cells [1]; MCF7, 50 μM): ~0.30 μg/million cells | compound detected in treated cells (MCF7 cells [1]; MCF7 cells treated 6 hours, LC-MS): approximately 0.30 μg/million cells | solubility in PBS (precipitation) [3]: white precipitation formed instantly
SMILES: CCCCCCCCCCCCCC(=S)NCCCCC(NC(=O)OCc1ccccc1)C(=O)Nc1ccccc1 (centres unmarked) [TM]
colony formation in soft agar (MCF7 cells [2]): formed many colonies | cytotoxicity in cancer cell lines [4]: cytotoxic | tumor growth (breast cancers): inhibited tumor growth

From article PMC6942458 (ACS chemical biology, 2019)
